Source: patent US9180094B2, “High porosity materials, scaffolds, and method of making” (The Texas A&M University System, priority 2011, dated 2015)
Blank lines part the entries; values can stand above or below the molecule they belong to.

What was measured:
[1] = test system: human mesenchymal stem cells; assay: Cell viability with scaffold samples introduced into the medium; format: cell-based; conditions: scaffold prepared with 5 wt. % initiator in the medium, after 72 hours
Procedure: Said initiators are typically those with decomposition temperature ranging from between about 25 to about 100° C. Examples include but are not limited to azobis-isobutyronitrile (AIBN) and benzoyl peroxide (BPO). Preliminary tack-free time studies of polyHIPE emulsions prepared with 5 wt. % AIBN or BPO indicated a […] cure time compared with emulsions prepared with 5 wt. % ammonium persulfate. The time to cure was about 7-12 hours with an ammonium persulfate initiator (aqueous phase free radical initiator) as compared with about 1.5 hours with the AIBN or BPO (organic soluble free radical initiator).

cells = assay: Cytocompatibility of cells after addition of surfactant PGPR; format: cell-based; conditions: concentrations that permit emulsification (0.1, 1.0 or 5 wt. %)
Excerpt: FIG. 3C depicts cytocompability of cells after addition of the surfactant, PGPR, at 0.1 wt. %, 1.0 wt. % or 5 wt. %;

[2] = test system: human mesenchymal stem cells (hMSCs); assay: hMSC adhesion and spreading on scaffolds and films; format: cell-based; conditions: polyHIPE scaffolds fabricated with PGPR, AIBN initiated, between 3 and 24 hours after seeding
Procedure: For three-dimensional scaffolds described herein, the behavior of the surfactant may be further modified to improve cell adhesion to the scaffold of cells, such as fibroblasts, mesenchymal stem cells, osteoblasts, chondrocytes, and other matrix formed cells. […] PolyHIPEs were prepared with PGPR and initiated with AIBN. When cured, as previously described, samples were sectioned using a precision diamond wafering saw. Prior to seeding with human mesenchymal stem cells (hMSCs), the polyHIPEs samples were soaked in 70% ethanol to sterilize, subjected to a wetting ladder to increase aqueous solution penetration, and incubated overnight in medium enhanced with 40 wt. % fetal bovine serum (FBS). The scaffolds were then seeded at a concentration of about 2×10^3 and 10×10^3 cells/cm^2. On scaffolds fabricated with PGPR, hMSC adhesion and spreading declined when measured between 3 and 24 hours after seeding. It was hypothesized that PGPR may be affecting protein adsorption and/or their conformation when attempting to localize on the polyHIPE scaffold. This was further analyzed on PFDMA films prepared with and without PGPR. The effect of PGPR on protein adsorption and/or conformation was confirmed at 24 hours, in which hMSC adhesion and spreading decreased on PGPR-PFDMA film specimens as compared with control (PFDMA alone) specimens. […]

Macromer viscosity = format: physicochemical
Procedure: Further described is a method of preparing a polyHIPE. In one form the polyHIPE is prepared with a biodegradable fumerate having ester linkages. One example is PFDMA. The method further comprises a two-step process. The first step produced an intermediate molecule as a diester intermediate. In one form the intermediate was bis-(1,2-hydroxypropyl)fumarate (FIG. 1A). The intermediate was then functionalized with methacrylate endgroups (FIG. 1B). With purification, the structure of the resulting formed material, PFDMA, was confirmed with ^1H NMR, as represented in FIG. 2. Integration ratio of methacryloyl protons to fumarate protons in the ^1H NMR spectra was confirmed and the formed structure was, in this example, a PFDMA as a single fumarate unit with two terminal methacrylate groups. The average functionalization was calculated to be greater than 80%. In some embodiments, functionalization was calculated to be at or about 83%. The methacrylate and fumarate groups provided sites for radical crosslinking as further described below. It is, in part, the crosslinking as described herein that allows cure of the HIPE at physiological temperatures.

Molecule: CC(C)(C#N)N=NC(C)(C)C#N [AIBN, azobis-isobutyronitrile]
- effect on cell viability [1]: Neither 5 wt. % AIBN or 5 wt. % BPO appeared to greatly effect cell viability

Molecule: O=C(OOC(=O)c1ccccc1)c1ccccc1 [BPO, benzoyl peroxide]
- effect on cell viability [1]: Neither 5 wt. % AIBN or 5 wt. % BPO appeared to greatly effect cell viability

- cytocompatibility with cells (cells): cytocompatible
Molecule: polyglycerol polyricinoleate [PGPR 4125]
- hMSC adhesion and spreading on scaffolds [2]: declined

Molecule: propylene fumarate dimethacrylate [PFDMA]
- viscosity (Macromer viscosity): about 125 cP
